Test results: US11351178B2, “Selective HDAC6 inhibitors” (ITALFARMACO S.P.A., priority 2017, dated 2022)
Like-named read-outs stand apart in the source and are kept apart here.

How the values were obtained:
recombinant human HDAC3 = molecular target: T1, recombinant human HDAC3 (Homo sapiens, UniProt O15379); experiment: Enzymatic screening on recombinant human HDAC3; type: biochemical; settings: Table 3
T1 construct: purchased BPS 50003
Protocol: Enzymatic activity on recombinant human HDAC6 and HDAC3 was evaluated (Table 2) for each synthesized compound.
(§1) After a period of incubation at 30° C. (incubation times vary for different isoforms and are shown in table 1) 25 μL of solution containing the substrate were added. As substrate, FLUOR DE LYS® deacetylase substrate (Enzo Life Sciences, cat #BML-K1104, FdL), FLUOR DE LYS®-Green substrate (Enzo Life Sciences, cat #BML-K1572 FdL_G) and trifluoroacetyl-L-lysine (Tfal)-2× concentrated solution in 25 mM Tris-HCl, pH 8, 130 mM NaCl 0.05% Tween-20 10% glycerol) were used. Following a reaction period at 30° C.

HDAC1 = molecular target: T2, HDAC1 (Homo sapiens, UniProt Q13547); experiment: Enzymatic test HDAC1; type: biochemical; settings: Table 3
T2 construct: purchased BPS 50051
T2 sequence (Q13547 whole entry): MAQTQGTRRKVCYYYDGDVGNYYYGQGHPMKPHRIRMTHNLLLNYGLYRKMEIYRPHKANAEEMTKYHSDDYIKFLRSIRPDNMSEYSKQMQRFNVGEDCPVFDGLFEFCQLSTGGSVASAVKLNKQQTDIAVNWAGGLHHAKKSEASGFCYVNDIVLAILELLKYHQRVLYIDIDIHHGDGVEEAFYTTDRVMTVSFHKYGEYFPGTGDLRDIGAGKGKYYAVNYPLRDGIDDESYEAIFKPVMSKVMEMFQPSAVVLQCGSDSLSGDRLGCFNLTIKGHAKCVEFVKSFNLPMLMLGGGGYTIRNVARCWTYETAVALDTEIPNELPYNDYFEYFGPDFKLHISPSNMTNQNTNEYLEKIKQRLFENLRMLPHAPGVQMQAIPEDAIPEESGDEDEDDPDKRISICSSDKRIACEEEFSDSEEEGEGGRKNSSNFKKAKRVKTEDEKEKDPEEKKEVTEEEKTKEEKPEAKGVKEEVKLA

HDAC8 = molecular target: T3, HDAC8 (Homo sapiens, UniProt Q9BY41); experiment: Enzymatic test HDAC8; type: biochemical; settings: Table 3
T3 construct: purchased BPS 50008
T3 sequence (Q9BY41 1-377): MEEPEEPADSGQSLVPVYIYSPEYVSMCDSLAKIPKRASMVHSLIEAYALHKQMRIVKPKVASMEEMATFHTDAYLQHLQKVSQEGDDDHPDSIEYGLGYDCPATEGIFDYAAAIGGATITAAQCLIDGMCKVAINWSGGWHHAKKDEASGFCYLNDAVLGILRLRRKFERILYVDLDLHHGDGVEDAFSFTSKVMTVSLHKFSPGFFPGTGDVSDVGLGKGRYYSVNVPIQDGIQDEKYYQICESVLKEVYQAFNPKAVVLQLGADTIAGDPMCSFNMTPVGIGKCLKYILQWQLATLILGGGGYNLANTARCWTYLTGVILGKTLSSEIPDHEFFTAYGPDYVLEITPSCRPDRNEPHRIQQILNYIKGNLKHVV

HDAC4 = molecular target: T4, HDAC4 (Homo sapiens, UniProt P56524); experiment: Enzymatic test HDAC4; type: biochemical; settings: Table 3
T4 construct: purchased BPS 50004
T4 sequence (P56524 627-1084 limits assumed): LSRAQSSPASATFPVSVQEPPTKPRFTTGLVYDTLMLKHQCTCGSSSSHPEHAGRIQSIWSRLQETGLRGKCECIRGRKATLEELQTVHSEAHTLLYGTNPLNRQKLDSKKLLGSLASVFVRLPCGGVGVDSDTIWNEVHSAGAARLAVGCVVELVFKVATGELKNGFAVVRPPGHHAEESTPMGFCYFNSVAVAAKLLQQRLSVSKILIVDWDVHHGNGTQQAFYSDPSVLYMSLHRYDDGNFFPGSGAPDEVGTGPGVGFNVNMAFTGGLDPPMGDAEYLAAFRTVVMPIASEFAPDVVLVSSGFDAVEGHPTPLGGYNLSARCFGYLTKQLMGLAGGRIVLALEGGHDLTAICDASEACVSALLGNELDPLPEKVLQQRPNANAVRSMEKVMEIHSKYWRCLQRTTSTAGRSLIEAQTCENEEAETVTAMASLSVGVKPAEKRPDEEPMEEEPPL
Protocol: as §1

HDAC5 = molecular target: T5, HDAC5 (Homo sapiens, UniProt Q9UQL6); experiment: Enzymatic test HDAC5; type: biochemical; settings: Table 3
T5 construct: purchased BPS 50005
T5 sequence (Q9UQL6 656-1122 limits assumed): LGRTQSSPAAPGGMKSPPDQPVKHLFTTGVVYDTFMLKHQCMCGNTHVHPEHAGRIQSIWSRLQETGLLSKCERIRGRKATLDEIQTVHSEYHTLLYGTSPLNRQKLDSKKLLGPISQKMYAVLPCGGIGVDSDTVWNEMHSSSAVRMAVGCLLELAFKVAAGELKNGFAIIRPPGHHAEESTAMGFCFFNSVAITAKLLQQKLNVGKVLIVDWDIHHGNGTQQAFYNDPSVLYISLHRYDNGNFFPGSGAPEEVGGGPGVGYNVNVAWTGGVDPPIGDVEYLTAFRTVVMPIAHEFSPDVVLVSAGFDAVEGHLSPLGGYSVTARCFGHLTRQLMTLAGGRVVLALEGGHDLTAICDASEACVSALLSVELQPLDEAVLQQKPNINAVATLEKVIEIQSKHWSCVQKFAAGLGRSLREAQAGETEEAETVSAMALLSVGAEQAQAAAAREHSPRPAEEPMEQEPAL
Protocol: as §1

HDAC9 = molecular target: T6, HDAC9 (Homo sapiens, UniProt Q9UKV0); experiment: Enzymatic test HDAC9; type: biochemical; settings: Table 3
T6 construct: purchased BPS 50009
T6 sequence (Q9UKV0 1-1066 isoform Q9UKV0-5): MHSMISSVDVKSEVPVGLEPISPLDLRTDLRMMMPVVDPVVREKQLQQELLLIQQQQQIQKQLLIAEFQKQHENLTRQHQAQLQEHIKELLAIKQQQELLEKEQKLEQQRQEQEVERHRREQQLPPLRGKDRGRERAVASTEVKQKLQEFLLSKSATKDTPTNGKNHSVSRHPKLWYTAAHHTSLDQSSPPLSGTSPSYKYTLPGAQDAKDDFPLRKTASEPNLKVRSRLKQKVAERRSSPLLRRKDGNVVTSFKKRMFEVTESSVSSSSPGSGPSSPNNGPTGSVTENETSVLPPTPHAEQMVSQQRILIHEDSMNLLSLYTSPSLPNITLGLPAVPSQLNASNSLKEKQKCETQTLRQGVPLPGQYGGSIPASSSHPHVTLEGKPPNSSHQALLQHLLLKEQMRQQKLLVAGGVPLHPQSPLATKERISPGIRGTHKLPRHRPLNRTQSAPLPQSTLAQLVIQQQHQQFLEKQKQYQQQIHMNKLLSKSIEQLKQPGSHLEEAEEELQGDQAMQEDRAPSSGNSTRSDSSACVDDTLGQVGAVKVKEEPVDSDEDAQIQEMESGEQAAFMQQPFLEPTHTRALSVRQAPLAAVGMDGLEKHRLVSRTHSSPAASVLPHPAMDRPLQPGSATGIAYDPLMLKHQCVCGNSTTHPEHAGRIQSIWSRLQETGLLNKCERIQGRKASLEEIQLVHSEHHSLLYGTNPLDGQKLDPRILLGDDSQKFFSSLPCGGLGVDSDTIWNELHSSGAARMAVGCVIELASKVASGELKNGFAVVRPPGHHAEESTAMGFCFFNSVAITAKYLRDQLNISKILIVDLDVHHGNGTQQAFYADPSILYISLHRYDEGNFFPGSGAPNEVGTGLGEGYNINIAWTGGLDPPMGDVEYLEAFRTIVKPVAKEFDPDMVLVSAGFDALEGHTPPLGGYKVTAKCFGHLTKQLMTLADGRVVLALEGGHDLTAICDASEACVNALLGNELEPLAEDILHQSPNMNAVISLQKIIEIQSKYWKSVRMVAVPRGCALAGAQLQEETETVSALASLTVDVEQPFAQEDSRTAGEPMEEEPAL
Protocol: as §1

HDAC10 = molecular target: T7, HDAC10 (Homo sapiens, UniProt Q969S8); experiment: Enzymatic test HDAC10; type: biochemical; settings: Table 3
T7 construct: purchased BPS 50010
T7 sequence (Q969S8 1-669): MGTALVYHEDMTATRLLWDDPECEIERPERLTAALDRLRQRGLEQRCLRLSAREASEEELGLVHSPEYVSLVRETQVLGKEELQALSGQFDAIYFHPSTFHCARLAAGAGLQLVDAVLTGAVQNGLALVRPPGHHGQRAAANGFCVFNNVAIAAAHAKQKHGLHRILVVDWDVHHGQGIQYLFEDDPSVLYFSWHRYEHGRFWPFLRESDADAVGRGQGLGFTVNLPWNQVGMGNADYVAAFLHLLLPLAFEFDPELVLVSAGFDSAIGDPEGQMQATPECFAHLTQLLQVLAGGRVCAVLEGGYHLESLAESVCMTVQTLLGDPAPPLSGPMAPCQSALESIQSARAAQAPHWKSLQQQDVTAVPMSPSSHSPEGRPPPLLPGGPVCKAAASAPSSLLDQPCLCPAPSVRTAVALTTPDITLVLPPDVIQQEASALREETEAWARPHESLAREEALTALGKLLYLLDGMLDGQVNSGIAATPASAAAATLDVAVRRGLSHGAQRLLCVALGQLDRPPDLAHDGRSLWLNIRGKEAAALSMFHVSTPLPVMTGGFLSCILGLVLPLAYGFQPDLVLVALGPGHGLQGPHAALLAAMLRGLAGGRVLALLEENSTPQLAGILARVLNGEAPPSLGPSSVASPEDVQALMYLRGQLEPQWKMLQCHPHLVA

[1] = test system: peripheral blood mononuclear cells (PBMCs); experiment: Cytotoxicity on PBMCs (CellTiter 96); type: cell-based; settings: PBMC, 72 h; read-out: PBMC TOXICITY (72 h)
Outline: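 Mitochondrial-function readout (CellTiter 96 Aqueous One) after 72 h compound exposure, begun 24 h post-seeding. Dose ranges: 697 cells, 1 to 10000 nM at 2×10^4 cells/well; PBMCs, 1.5 to 10000 nM at 5×10^5 cells/well.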

human PBMCs = experiment: Mixed Lymphocytes Reaction (MLR) with human PBMCs (IFN-γ, TNF-α, IL-6); type: cell-based; settings: PBMC, 144 h, two-way MLR, 6 days, 1 μM, negative = induction
Protocol: In order to study HDAC6 inhibitors ability to inhibit the activation of allogenic T CD4+ cells, a Mixed Lymphocytes Reaction (MLR or mixed lymphocyte culture, CLM) assay was performed. This is a reaction involving blast transformation of in vitro cultured lymphocytes in the presence of allogeneic lymphocytes. There is the so-called “two-way” reaction wherein the two lymphocyte populations stimulate each other to proliferate, and the so-called “one way” reaction, wherein the proliferation of one of the two populations is inhibited by mitomycin C or irradiation, these cells provide proliferation stimulus (stimulator) to the so-called “responder” cells.
Human peripheral blood mononuclear cells (PBMCs) used in MLR were obtained by Ficoll gradient separation from Buffy Coat of healthy donors.
We used a two-way MLR. The cells from the two donors were plated at 1:1 ratio (allogenic stimulation) to the final concentration of 2×10^5 per well in U-bottom 96 well plates in RPMI 1640 medium with 10% FBS and antibiotics. As a control we individually plated the cells from each donor (singenic stimulus). The experiment for each inhibitor was set in deduplicate for allogeneic stimuli and in quintuplicate for singenic stimuli. The cells were cultured for 6 days in an incubator at 37° C.
After 6 days the effect of the test compounds was evaluated by measuring the production of pro-inflammatory cytokines recognized to be characteristics of this assay.
For this purpose, the culture supernatant was harvested and used for IFN-γ, TNF-α and IL-6 inflammatory cytokine assay.
The JAK inhibitor ruxolitinib was used as the active reference compound in the test.
Values in the table indicate the inhibition percentages. Negative values indicate an induction.

[2] = read-out: MLR IFN-γ inhibition percentage
[3] = read-out: MLR IL-6 inhibition percentage
[4] = read-out: MLR TNF-α inhibition percentage

T1 sequence (O15379 whole entry): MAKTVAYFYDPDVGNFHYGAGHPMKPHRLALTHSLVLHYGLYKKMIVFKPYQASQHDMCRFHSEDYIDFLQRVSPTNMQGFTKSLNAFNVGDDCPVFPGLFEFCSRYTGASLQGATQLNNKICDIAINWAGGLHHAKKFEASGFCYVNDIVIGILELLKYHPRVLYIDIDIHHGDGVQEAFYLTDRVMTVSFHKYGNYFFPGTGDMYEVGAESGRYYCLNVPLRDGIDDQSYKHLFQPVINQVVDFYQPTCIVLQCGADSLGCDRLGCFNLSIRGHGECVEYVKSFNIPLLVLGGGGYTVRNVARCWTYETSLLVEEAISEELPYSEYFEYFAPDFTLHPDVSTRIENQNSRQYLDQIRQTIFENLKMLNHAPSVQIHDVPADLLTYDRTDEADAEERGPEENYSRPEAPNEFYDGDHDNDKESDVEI
T1 sequence (Q9Y618 395-489 partner limits assumed): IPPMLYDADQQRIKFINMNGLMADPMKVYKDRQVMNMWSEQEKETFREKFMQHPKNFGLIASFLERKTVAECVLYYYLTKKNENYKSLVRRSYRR

Row | Compound | IC50 (recombinant human HDAC3) | IC50 (HDAC1) | IC50 (HDAC8) | IC50 (HDAC4) | IC50 (HDAC5) | IC50 (HDAC9) | IC50 (HDAC10) | IC50 [1] | inhibition at 1 µM (human PBMCs; [2]) | inhibition at 1 µM (human PBMCs; [3]) | inhibition at 1 µM (human PBMCs; [4])
1 | O=C(NO)c1cc(F)c(Cn2nnc(-c3ccccn3)n2)c(F)c1 [comp. 6, 3,5-difluoro-N-hydroxy-4-((5-(pyridin-2-yl)-2H-tetrazol-2-yl)methyl)benzamide] | 7.26 µM | 7.51 µM | 1.02 µM | 1.04 µM | 1.05 µM | 0.756 µM | 10.9 µM | 20 µM | -6.5% | 15.5% | 13.5%
2 | Cn1c(Sc2ccc(C(=O)NO)cc2)nnc1-c1cccs1 [comp. 10, N-hydroxy-4-((4-methyl-5-(thiophen-2-yl)-4H-1,2,4-triazol-3-yl)thio)benzamide] | 0.487 µM | 1.02 µM | 0.506 µM | 2.5 µM | 2.68 µM | 1.08 µM | 2.82 µM | 4.5 µM | 25.6% | 20.6% | 49.4%
3 | O=C(NO)c1cc(F)c(Cn2nnnc2-c2ccccn2)c(F)c1 [comp. 13, 3,5-difluoro-N-hydroxy-4-((5-(pyridin-2-yl)-1H-tetrazol-1-yl)methyl)benzamide] | 2.49 µM | 2.89 µM | 0.49 µM | 0.606 µM | 0.512 µM | 0.64 µM | 2.68 µM |  | -10.9% | 38.3% | 37.2%
4 | O=C(NO)c1cc(F)c(Cn2nnnc2-c2cccs2)c(F)c1 [comp. 15, 3,5-difluoro-N-hydroxy-4-((5-(thiophen-2-yl)-1H-tetrazol-1-yl)methyl)benzamide] | 6.29 µM | 7.09 µM | 0.999 µM | 0.66 µM | 0.706 µM | 0.659 µM | 8.63 µM | > 10 µM | 21% | 22.9% | 33.9%
5 | Cn1c(Sc2c(F)cc(C(=O)NO)cc2F)nnc1-c1cccs1 [comp. 17, 3,5-difluoro-N-hydroxy-4-((4-methyl-5-(thiophen-2-yl)-4H-1,2,4-triazol-3-yl)thio)benzamide] | 2.83 µM | 3.99 µM | 0.193 µM | 1.39 µM | 1.54 µM | 0.496 µM | 6.86 µM | 9 µM | 41.6% | 31.2% | 39.4%
6 | O=C(NO)c1cc(F)c(Cn2nnc(-c3ccco3)n2)c(F)c1 [comp. 19, 3,5-difluoro-4-((5-(furan-2-yl)-2H-tetrazol-2-yl)methyl)-N-hydroxybenzamide] | 2.64 µM | 2.52 µM | 0.647 µM | 0.675 µM | 0.597 µM | 0.592 µM | 2.7 µM | > 10 µM | -7.85% | 4.62% | 25.9%
7 | CCN(CC)S(=O)(=O)c1cccc(-c2nnc(Sc3ccc(C(=O)NO)cc3)n2N)c1 [comp. 61, 4-[[4-amino-5-[3-(diethylsulfamoyl)phenyl]-1,2,4-triazol-3-yl]sulfanyl]benzenecarbohydroxamic acid] | 0.488 µM | 0.495 µM | 0.494 µM | 1.59 µM | 2.51 µM | 0.884 µM | 0.991 µM |  | 16% | -21% | 
8 | O=C(NO)c1cc(F)c(Cn2nnc(-c3cccs3)n2)c(F)c1 [comp. 65, 3,5-difluoro-4-[[5-(2-thienyl)tetrazol-2-yl]methyl]benzenecarbohydroxamic acid] | 1.86 µM | 2.41 µM | 1.08 µM | 0.831 µM | 1.19 µM | 0.995 µM | 1.45 µM |  | 45% | 5.4% | 67.3%
9 | CCN(CC)S(=O)(=O)c1cccc(-c2nnc(Sc3ccc(C(=O)NO)cc3)n2C)c1 [comp. 66, 4-[[5-[3-(diethylsulfamoyl)phenyl]-4-methyl-1,2,4-triazol-3-yl]sulfanyl]benzenecarbohydroxamic acid] | 0.921 µM | 0.747 µM | 0.419 µM | 0.481 µM | 0.325 µM | 0.168 µM | 1.34 µM |  | 53% | 12.9% | 42.8%
10 | CN(C)c1cccc(-c2nnc(Sc3ccc(C(=O)NO)cc3)n2C)c1 [comp. 77, 4-[[5-[3-(dimethylamino)phenyl]-4-methyl-1,2,4-triazol-3-yl]sulfanyl]benzenecarbohydroxamic acid] | 1.15 µM | 0.581 µM | 0.795 µM | 2.65 µM | 4.47 µM | 1.73 µM | 2.81 µM | 2 µM | 32.1% | 34.3% | 64.2%
11 | Cc1cc(-c2nnc(Sc3ccc(C(=O)NO)cc3)n2C)nn1C [comp. 85, 4-[[5-(1,5-dimethylpyrazol-3-yl)-4-methyl-1,2,4-triazol-3-yl]sulfanyl]benzenecarbohydroxamic acid] | 0.339 µM | 0.469 µM | 0.216 µM | 1.03 µM | 0.559 µM | 0.452 µM | 0.954 µM | 2 µM | 51.8% | 66.9% | 73.8%
